Experimental data: ChEMBL document CHEMBL1201862, “PubChem BioAssay data set” (2004)
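Compound exposure: 48 hours, 5 concentrations, 96-well plates. GI50 marks 50% less growth.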 Active and inactive are the calls of the source. Rule as the data show it: active = GI50 up to about 1.1 µM and inactive = higher.

Legend:
Assay in all cases: NCI tumour cell line growth inhibition, 48 h
[1] = tested on: XF498
[2] = tested on: SNB-78
[3] = tested on: DLD-1
[4] = tested on: LXFL 529
[5] = tested on: HOP-18
[6] = tested on: RXF 631
[7] = tested on: DMS-273
[8] = tested on: KM-20L2
[9] = tested on: DMS-114

| Compound | GI50 [1] | GI50 [2] | GI50 [3] | GI50 [4] | GI50 [5] | GI50 [6] | GI50 [7] | GI50 [8] | GI50 [9] |
| --- | --- | --- | --- | --- | --- | --- | --- | --- | --- |
| Cc1ccccc1C1=C/C(=C(\SS/C(C(=O)c2ccc(OCC(=O)O)c(Cl)c2Cl)=C2\C=C(c3ccccc3C)SS2)C(=O)c2ccc(OCC(=O)O)c(Cl)c2Cl)SS1 | 19.2 µM (inactive) | 14.4 µM (inactive) | 23.8 µM (inactive) | 4.45 µM (inactive) | 16.2 µM (inactive) | 25.9 µM (inactive) | 20 µM (inactive) | 37.9 µM (inactive) | 9.04 µM (inactive) |
| c1ccc(-c2nnc3nn4c(-c5ccccc5)cnnc4c3c2-c2ccccc2)cc1 | 27.5 µM (inactive) | 31.7 µM (inactive) | 95.1 µM (inactive) | 42.7 µM (inactive) | 53 µM (inactive) | 18.7 µM (inactive) | > 100 µM (inactive) | 95.3 µM (inactive) | 35.6 µM (inactive) |
| COC(=O)c1ccccc1/N=C/c1ccc(N(CCC#N)S(=O)(=O)c2ccccc2)cc1 | > 100 µM (inactive) | > 100 µM (inactive) | > 100 µM (inactive) | > 100 µM (inactive) | > 100 µM (inactive) | > 100 µM (inactive) | > 100 µM (inactive) | > 100 µM (inactive) |  |
| C[C@H](OCc1ccccc1)C(=O)N1CCS(=O)(=O)N2CCC[C@H]2C1=O |  | > 100 µM (inactive) | > 100 µM (inactive) | > 100 µM (inactive) | > 100 µM (inactive) | > 100 µM (inactive) |  | > 100 µM (inactive) | > 100 µM (inactive) |
| O=[N+]([O-])/C=C/c1ccc(Cl)cc1Cl |  |  | 24.7 µM (inactive) | 13.8 µM (inactive) |  |  | 11 µM (inactive) | 18.7 µM (inactive) | 17.8 µM (inactive) |
| CCN1CCC(O)(c2ccc(Cl)cc2)C(C(=O)c2ccc(Cl)cc2)C1 (stereo unspecified) | > 100 µM (inactive) | > 100 µM (inactive) | > 100 µM (inactive) | > 100 µM (inactive) | 22.6 µM (inactive) |  | > 100 µM (inactive) | > 100 µM (inactive) |  |
| C[C@H]1CC[C@H](NC(=O)N(CCCl)N=O)CC1 | 45.7 µM (inactive) | 35.2 µM (inactive) | 39.5 µM (inactive) | 14.9 µM (inactive) | 40.8 µM (inactive) | 33.1 µM (inactive) | 33.1 µM (inactive) | 56.4 µM (inactive) | 36.5 µM (inactive) |
| O=C1[C@@H]2C3SC(c4ccccc43)[C@@H]2C(=O)N1c1ccccc1 | 61 µM (inactive) | > 100 µM (inactive) | > 100 µM (inactive) | > 100 µM (inactive) | > 90.4 µM (inactive) |  | > 100 µM (inactive) | > 100 µM (inactive) | > 100 µM (inactive) |
| COc1ccc(/C=N/N=C(\N)NO)cc1OC | 35.1 µM (inactive) | > 100 µM (inactive) | 60.1 µM (inactive) | 33.9 µM (inactive) |  |  | 48.9 µM (inactive) | 37.8 µM (inactive) | 28.7 µM (inactive) |
| CCCc1nn(C)c(CCC(=O)N(Cc2ccccc2)Cc2ccccc2)c1CC | > 100 µM (inactive) | > 100 µM (inactive) | > 100 µM (inactive) | > 100 µM (inactive) | > 100 µM (inactive) |  |  | > 100 µM (inactive) | > 100 µM (inactive) |
| CCC12CCCN(Cc3ccccc3)C1c1c(n(C)c3ccccc13)C(C(=O)OC)C2 (stereo unspecified) | 36.8 µM (inactive) |  | 212 µM (inactive) | 96.6 µM (inactive) |  | 111 µM (inactive) | 84.5 µM (inactive) | 130 µM (inactive) | 90.6 µM (inactive) |
| Cc1ccccc1C(C#N)/C(=N/NC(=O)C(=O)NN)C(=O)Nc1cccc(C(F)(F)F)c1 (stereo unspecified) |  | > 100 µM (inactive) | > 100 µM (inactive) | > 100 µM (inactive) | > 100 µM (inactive) | > 100 µM (inactive) | > 100 µM (inactive) | > 100 µM (inactive) | > 100 µM (inactive) |
| CN1C(=O)C(Cl)(C(Cl)(Cl)S(=O)(=O)O)C(=O)c2ccccc21.c1ccncc1 (stereo unspecified) |  |  | > 100 µM (inactive) | > 100 µM (inactive) |  |  |  | 19.5 µM (inactive) |  |
| COc1cc2c(c(OC)c1OC)-c1ccc(SC)c(=O)cc1C(CC(=O)Oc1cccc(F)c1)C2 (stereo unspecified) | 0.344 µM (active) | 0.237 µM (active) | 0.397 µM (active) | 0.316 µM (active) | > 62.2 µM (inactive) | 0.115 µM (active) | 0.214 µM (active) | 0.0813 µM (active) | 0.24 µM (active) |
| O=C1NC(c2ccccc2)(c2ccccc2)C(=O)N1CCCCCCN1C(=O)NC(c2ccccc2)(c2ccccc2)C1=O | 10.3 µM (inactive) | 33.3 µM (inactive) | > 100 µM (inactive) | 25.9 µM (inactive) | 26.2 µM (inactive) |  | 46 µM (inactive) | > 100 µM (inactive) | 34.2 µM (inactive) |
| COC(=O)C1=C(c2ccc(OC)c(OC)c2)OC(c2ccc(OC)c(OC)c2)C1 (stereo unspecified) | 23.2 µM (inactive) | 28.7 µM (inactive) | 5.93 µM (inactive) | 16.2 µM (inactive) | 33.5 µM (inactive) |  | 54.7 µM (inactive) | 39.4 µM (inactive) | 23.2 µM (inactive) |
| Cc1cc(O)nc(NNC(C#N)c2ccccc2O)n1 (stereo unspecified) |  |  | 18.4 µM (inactive) |  | 23.3 µM (inactive) |  | 5.27 µM (inactive) | 13.1 µM (inactive) | 19.8 µM (inactive) |
| COc1ccc(OC)c(CCc2ccccc2CC(=O)O)c1 | > 100 µM (inactive) | > 100 µM (inactive) | > 100 µM (inactive) | > 100 µM (inactive) | > 100 µM (inactive) |  | > 100 µM (inactive) | > 100 µM (inactive) | > 100 µM (inactive) |
| O=C(N/C(=C\c1cccc([N+](=O)[O-])c1)c1nc2cc([N+](=O)[O-])ccc2[nH]1)c1ccccc1 | 20.7 µM (inactive) | 49.3 µM (inactive) | 28.4 µM (inactive) | 11 µM (inactive) |  | 28.8 µM (inactive) | 39 µM (inactive) | 23.1 µM (inactive) |  |
| CC(C)C(Nc1c2ccccc2nc2ccccc12)C(=O)O (stereo unspecified) | 3.08 µM (inactive) |  | > 100 µM (inactive) | > 100 µM (inactive) |  |  | 68.4 µM (inactive) | > 100 µM (inactive) |  |
| CNS(=O)(=O)NNS(=O)(=O)c1ccc2ccccc2c1 |  | > 100 µM (inactive) | > 100 µM (inactive) | > 100 µM (inactive) | > 100 µM (inactive) |  | > 100 µM (inactive) | > 100 µM (inactive) | > 100 µM (inactive) |
| COc1ccc(-c2cc(=O)c3c(O)cc(O)cc3o2)c(OC)c1OC | 63 µM (inactive) |  | 81.3 µM (inactive) | 49.3 µM (inactive) |  |  |  | 30.1 µM (inactive) | 50.1 µM (inactive) |
| COc1ccc2nc3ccccc3c(NCCN(CCCl)CCCl)c2c1 | 0.497 µM (active) | 0.769 µM (active) | 0.738 µM (active) | 0.466 µM (active) |  | 0.455 µM (active) | 0.333 µM (active) | 0.474 µM (active) |  |
| O=c1cc(-c2ccccc2)oc2cc(O)cc(O)c12 [CHRYSIN] | 20 µM (inactive) | 28.8 µM (inactive) |  | 21.1 µM (inactive) |  |  | 16.2 µM (inactive) | 23.9 µM (inactive) | 22.4 µM (inactive) |
| CC[C@H](C)C(=O)O[C@H]1C[C@@H](C)C=C2C=C[C@H](C)[C@H](CC[C@@H]3C[C@@H](O)CC(=O)O3)[C@H]21 [LOVASTATIN] |  |  | > 30 µM (inactive) | 7.76 µM (inactive) | > 30 µM (inactive) |  | 8.69 µM (inactive) | > 30 µM (inactive) | > 30 µM (inactive) |
| Cc1ccc(C(=O)Nc2ccc(S(=O)(=O)O)c3cc(S(=O)(=O)O)cc(S(=O)(=O)O)c23)cc1NC(=O)c1cccc(NC(=O)Nc2cccc(C(=O)Nc3cc(C(=O)Nc4ccc(S(=O)(=O)O)c5cc(S(=O)(=O)O)cc(S(=O)(=O)O)c45)ccc3C)c2)c1 [SURAMIN] | 27 µM (inactive) | > 71.3 µM (inactive) | 97.5 µM (inactive) | > 100 µM (inactive) | > 52.4 µM (inactive) |  | 39.8 µM (inactive) | 34.6 µM (inactive) | 28.6 µM (inactive) |
| S=P(N1CC1)(N1CC1)N1CC1 [THIOTEPA] | 95.1 µM (inactive) | 385 µM (inactive) | 195 µM (inactive) | 146 µM (inactive) | 231 µM (inactive) |  | 21.3 µM (inactive) | 175 µM (inactive) | 35.4 µM (inactive) |
